Measured values taken from ChEMBL document CHEMBL5625182, “Synthesis and antibacterial activities of baulamycin A inspired derivatives” (Eur J Med Chem, 2023).
≈ marks a conversion by molar mass, not a printed value. Calls of active or inactive are those of the source. No cut-off for these calls is given here.

Experiments:
[1] = biological target: T1, L-2,3-diaminopropanoate--citrate ligase (Staphylococcus aureus (strain NCTC 8325 / PS 47), UniProt Q2G1M9); assay: Inhibition of Staphylococcus aureus SbnE incubated for 1 hr by malachite green staining based microplate reader analysis
T1 sequence (Q2G1M9 whole entry): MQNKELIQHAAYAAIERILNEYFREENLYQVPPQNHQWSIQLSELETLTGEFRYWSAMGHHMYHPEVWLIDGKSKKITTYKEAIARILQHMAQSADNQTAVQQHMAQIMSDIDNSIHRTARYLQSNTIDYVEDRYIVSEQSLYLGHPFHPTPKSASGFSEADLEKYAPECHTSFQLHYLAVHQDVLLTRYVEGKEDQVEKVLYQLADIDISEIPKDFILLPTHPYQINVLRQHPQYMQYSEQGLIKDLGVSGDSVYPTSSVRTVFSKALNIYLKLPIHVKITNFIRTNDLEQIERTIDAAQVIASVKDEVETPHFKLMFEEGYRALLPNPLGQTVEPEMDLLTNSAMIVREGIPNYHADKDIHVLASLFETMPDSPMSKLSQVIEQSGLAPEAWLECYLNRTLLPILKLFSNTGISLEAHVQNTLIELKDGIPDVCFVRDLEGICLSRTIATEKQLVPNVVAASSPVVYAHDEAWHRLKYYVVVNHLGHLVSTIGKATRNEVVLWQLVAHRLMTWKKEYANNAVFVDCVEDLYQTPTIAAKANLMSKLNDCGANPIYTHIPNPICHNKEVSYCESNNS

Salmonella typhimurium = assay: Antibacterial activity against Salmonella typhimurium ATCC14028 assessed as inhibition of bacterial growth incubated for 18 hrs by microdilution method; assay type: functional, Salmonella enterica subsp. enterica serovar Typhimurium; conditions: Salmonella enterica
Staphylococcus aureus [2] = assay: Antibacterial activity against quinolone-resistant Staphylococcus aureus CCARM3505 assessed as inhibition of bacterial growth incubated for 18 hrs by microdilution method; assay type: functional
Escherichia coli = assay: Antibacterial activity against Escherichia coli MC1061 assessed as inhibition of bacterial growth incubated for 18 hrs by microdilution method; assay type: functional
Staphylococcus aureus [3] = assay: Antibacterial activity against methicillin resistance Staphylococcus aureus assessed as reduction in biofilm formation at 1/2 times MIC incubated 24 hrs by crystal violet staining based microplate reader analysis; assay type: functional, organism-based
[4] = Antibacterial activity against Bacillus subtilis ATCC6633 assessed as inhibition of bacterial growth incubated for 18 hrs by microdilution method; assay type: functional, Bacillus subtilis […]
Staphylococcus aureus [5] = assay: Antibacterial activity against methicillin resistant Staphylococcus aureus CCARM3167 assessed as inhibition in bacterial growth incubated for 18 hrs by microdilution method; assay type: functional
Staphylococcus aureus [6] = assay: Antibacterial activity against methicillin resistance Staphylococcus aureus CCARM3167 assessed as inhibition of siderophore production at 1/4 times MIC incubated for 18 hrs by CAS liquid assay; assay type: functional, organism-based
Staphylococcus aureus [7] = assay: Antibacterial activity against Staphylococcus aureus ATCC25923 assessed as inhibition of siderophore production at 1/2 times MIC incubated for 18 hrs by CAS liquid assay; assay type: functional, organism-based
Staphylococcus aureus [8] = assay: Antibacterial activity against […] Staphylococcus aureus ATCC25923 assessed as inhibition in bacterial growth incubated for 18 hrs by microdilution method; assay type: functional
[9] = biological target: T2, L-2,3-diaminopropanoate--citrate ligase (Staphylococcus aureus (strain NCTC 8325 / PS 47)) (UniProt Q2G1M9); assay: Inhibition of Staphylococcus aureus SbnE at 50 uM incubated for 1 hr by malachite green staining based microplate reader analysis relative to control
T2 sequence (whole entry): T1 sequence (Q2G1M9 whole entry)

Cell membrane = assay: Induction of membrane disruption in methicillin resistant Staphylococcus aureus CCARM3167 at MIC incubated for 30 mins PI staining based Flow cytometry
Bacillus cereus = assay: Antibacterial activity against Bacillus cereus ATCC27348 assessed as inhibition of bacterial growth incubated for 18 hrs by microdilution method; assay type: functional

SMILES | IC50 [1] [µM] | MIC (Salmonella typhimurium) [µg/mL] | MIC (Staphylococcus aureus [2]) [µg/mL] | MIC (Escherichia coli) [µg/mL] | Activity (Staphylococcus aureus [3]) | MIC [4] [µg/mL] | MIC (Staphylococcus aureus [5]) [µg/mL] | Activity (Staphylococcus aureus [6]) | Activity (Staphylococcus aureus [7]) | MIC (Staphylococcus aureus [8]) [µg/mL] | inhibition [9] [%] | Activity (Cell membrane) | MIC (Bacillus cereus) [µg/mL]
CC(C)C[C@@H]([C@H](O)C[C@H](O)CCCCCCCCNCc1ccccc1)[C@@H](O)c1cc(O)cc(O)c1 | 41.1 | 4 (≈ 7.97 µM) | 0.5 (≈ 0.997 µM) | 0.25 (≈ 0.498 µM) | Active | 4 (≈ 7.97 µM) | 0.5 (≈ 0.997 µM) | inactive | inactive | 2 (≈ 3.99 µM) | 57.9 | Active | 1 (≈ 1.99 µM)
CC(C)C[C@H]([C@H](O)CCNCc1ccccc1)[C@@H](O)c1cc(O)cc(O)c1 | 3.45 |  |  |  |  |  | > 256 | inactive | inactive | > 256 | 97.1 |  | 
CC(C)C[C@H]([C@H](O)CCN)[C@@H](O)c1cc(O)cc(O)c1 | 1.81 |  |  |  |  |  | > 256 | inactive | inactive | > 256 | 97.2 |  | 
CC(C)C[C@H]([C@H](O)C[C@H](O)C#C[C@@H](C)C[C@H](C)C[C@@H](C)COCc1ccccc1)[C@@H](O)c1cc(O)cc(O)c1 | 5.49 | > 256 | 16 (≈ 29.6 µM) | > 256 | Active | > 256 | 4 (≈ 7.4 µM) |  |  | 8 (≈ 14.8 µM) | 71.7 | Active | > 256
Cc1ccc(NCC[C@@H](O)[C@@H](CC(C)C)[C@@H](O)c2cc(O)cc(O)c2)c(Cl)c1 | 4.12 | > 256 | 64 (≈ 157 µM) | > 256 | Active | > 256 | 32 (≈ 78.4 µM) |  |  | 16 (≈ 39.2 µM) | 89.2 | Active | > 256
C[C@@H](COCc1ccccc1)C[C@H](C)C[C@H](C)C#CC(O)C[C@@H](O)c1cc(O)cc(O)c1 (stereo partly drawn) | 8.94 | > 256 | 128 (≈ 291 µM) | > 256 | Active | > 256 | 256 (≈ 581 µM) |  |  | 128 (≈ 291 µM) | 76.4 | Active | 64 (≈ 145 µM)
